As a reminder, the IC50 is the point on the concentration scale where inhibition reaches its midpoint.

For five compounds, IC50 results are on record in patent US9637486B2, “Btk inhibitors” (MERCK SHARP & DOHME CORP., priority 2013, dated 2017).

For this experiment, the target named is BTK enzyme (hBTK, full-length recombinant) (Homo sapiens (Human), UniProt Q06187). Description: Btk enzyme activity assay, LANCE TR-FRET. In kind it is biochemical. The settings on record: 50 pM hBTK, 2 μM biotin-A5-peptide, 25 μM ATP; 60 minute compound & enzyme incubation; read-out: BTK binding IC50. The procedure: Also BTK enzymatic activity was determined with the LANCE (Lanthanide Chelate Excite) TR-FRET (Time-resolved fluorescence resonance energy transfer) assay. […] Following a 60 minute compound & enzyme incubation, each reaction was initiated by the addition of 2.5 μL 1× kinase buffer containing 8 μM biotinylated “A5” peptide (Biotin-EQEDEPEGDYFEWLE-NH2), and 100 μM ATP. The final reaction in each well of 10 μL consists of […], 2 μM biotin-A5-peptide, and 25 μM ATP. Phosphorylation reactions were allowed to proceed for 120 minutes. Reactions were immediately quenched by the addition of 20 uL of 1× quench buffer (15 mM EDTA, 25 mM Hepes 7.3, and 0.1% Triton X-100) containing detection reagents (0.626 nM of LANCE-Eu-W1024-anti-phosphoTyrosine antibody, PerkinElmer and 86.8 nM of Streptavidin-conjugated Dylight 650, Dyomics/ThermoFisher Scientific). After 60 minutes incubation with detection reagents, reaction plates were read on a PerkinElmer EnVision plate reader using standard TR-FRET protocol. Briefly, excitation of donor molecules (Eu-chelate:anti-phospho-antibody) with a laser light source at 337 nm produces energy that can be transferred to Dylight-650 acceptor molecules if this donor:acceptor pair is within close proximity. Fluorescence intensity at both 665 nm (acceptor) and 615 nm (donor) are measured and a TR-FRET ratio calculated for each well (acceptor intensity/donor intensity). […] (Log10) compound concentrations. Btk Enzyme Activity Assay Method BTK enzymatic activity was determined with the LANCE (Lanthanide Chelate Excite) TR-FRET (Time-resolved fluorescence resonance energy transfer) assay. […] Following a 60 minute compound & enzyme incubation, each reaction was initiated by the addition of 2.5 μL 1× kinase buffer containing 8 μM biotinylated “A5” peptide (Biotin-EQEDEPEGDYFEWLE-NH2), and 100 μM ATP. The final reaction in each well of 10 μL consists of 50 pM hBTK, 2 μM biotin-A5-peptide, and 25 μM ATP. Phosphorylation reactions were allowed to proceed for 120 minutes. Reactions were immediately quenched by the addition of 20 uL of 1× quench buffer (15 mM EDTA, 25 mM Hepes 7.3, and 0.1% Triton X-100) containing detection reagents (0.626 nM of LANCE-Eu-W1024-anti-phosphoTyrosine antibody, PerkinElmer and 86.8 nM of Streptavidin-conjugated Dylight 650, Dyomics/ThermoFisher Scientific). After 60 minutes incubation with detection reagents, reaction plates were read on a PerkinElmer EnVision plate reader using standard TR-FRET protocol. Briefly, excitation of donor molecules (Eu-chelate:anti-phospho-antibody) with a laser light source at 337 nm produces energy that can be transferred to Dylight-650 acceptor molecules if this donor:acceptor pair is within close proximity. Fluorescence intensity at both 665 nm (acceptor) and 615 nm (donor) are measured and a TR-FRET ratio calculated for each well (acceptor intensity/donor intensity). […] (Log10) compound concentrations.
BTK enzyme (hBTK, full-length recombinant), sequence (Q06187 whole entry): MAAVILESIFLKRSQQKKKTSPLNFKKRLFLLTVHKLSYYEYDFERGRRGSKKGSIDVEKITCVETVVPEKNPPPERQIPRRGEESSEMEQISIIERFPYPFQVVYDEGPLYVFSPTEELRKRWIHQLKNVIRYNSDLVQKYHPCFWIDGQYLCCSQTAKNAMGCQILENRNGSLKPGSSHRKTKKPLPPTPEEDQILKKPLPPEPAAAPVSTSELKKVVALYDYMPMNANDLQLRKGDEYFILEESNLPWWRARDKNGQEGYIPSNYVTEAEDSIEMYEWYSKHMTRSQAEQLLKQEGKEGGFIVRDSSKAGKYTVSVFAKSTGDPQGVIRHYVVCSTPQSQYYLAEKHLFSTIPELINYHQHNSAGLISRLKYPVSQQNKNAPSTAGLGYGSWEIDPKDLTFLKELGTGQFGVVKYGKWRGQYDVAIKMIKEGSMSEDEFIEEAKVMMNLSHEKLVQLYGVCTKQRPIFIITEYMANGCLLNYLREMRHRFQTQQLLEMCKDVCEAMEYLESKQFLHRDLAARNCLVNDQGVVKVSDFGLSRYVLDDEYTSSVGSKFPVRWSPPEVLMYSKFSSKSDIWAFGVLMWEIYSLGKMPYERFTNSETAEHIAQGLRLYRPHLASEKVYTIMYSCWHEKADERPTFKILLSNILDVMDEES
On the technique in general: TR-FRET usually uses a lanthanide donor and a delayed reading to cut background.
Consider `CC1(C(=O)N2CCC[C@@H](c3nn(-c4ccc(Oc5ccccc5)cc4)c4c(N)nccc34)C2)COC1` [Example 1, (R)-(3-(7-amino-1-(4-phenoxyphenyl)-1H-pyrazolo[3,4-c]pyridin-3-yl)piperidin-1-yl)(3-methyloxetan-3-yl)methanone], for which the IC50 came to 1.7 nM.

For `Nc1nccc2c([C@@H]3CCCN(C(=O)C4CC4(F)F)C3)nn(-c3ccc(Oc4ccccc4)cc3)c12` (stereo partly drawn) [Example 4, 3-{(3R)-1-[(2,2-difluorocyclopropyl)carbo-nyl]piperidin-3-yl}-1-(4-phenoxyphenyl)-1H-pyrazolo[3,4-c]pyridin-7-amine], the 50% inhibitory concentration (IC50) came to 9.3 nM.

Regarding `CC1(C(=O)N2CCC[C@@H](c3nn(-c4ccc(Oc5ccc(F)cc5)cc4)c4c(N)nccc34)C2)COC1` [Example 26, (R)-(3-(7-amino-1-(4-(4-fluorophenoxy)phenyl)-1H-pyrazolo[3,4-c]pyridin-3-yl)piperidin-1-yl)(3-methyloxetan-3-yl)methanone], the IC50 was 56.9 nM.

As for `C[C@H]1CC[C@@H](c2nn(-c3ccc(Oc4cccc(F)c4)cc3)c3c(N)nccc23)CN1C(=O)C1(C)COC1` [Example 28, 1-[4-(3-fluorophenoxy)phenyl]-3-{(3R,6S)-6-methyl-1-[(3-methyloxetan-3-yl)carbonyl]piperidin-3-yl}-1H-pyrazolo[3,4-c]pyridin-7-amine], the IC50 came to 3.8 nM.

For `C[C@@H](O)C(=O)N1C[C@H](c2nn(-c3ccc(Oc4cccc(F)c4)cc3)c3c(N)nccc23)CC[C@@H]1C` [Example 29, (2R)-1-[(2S,5R)-5-{7-amino-1-[4-(3-fluorophenoxy)phenyl]-1H-pyrazolo[3,4-c]pyridin-3-yl}-2-methylpiperidin-1-yl]-1-oxopropan-2-ol], the half-maximal inhibitory concentration (IC50) was 5.8 nM.
